{
  "source": "paper PMC4801399",
  "about": "“Impact of a CXCL12/CXCR4 Antagonist in Bleomycin (BLM) Induced Pulmonary Fibrosis and Carbon Tetrachloride (CCl4) Induced Hepatic Fibrosis in Mice” (PLoS ONE, 2016)",
  "key": {"[1]": {"system": "leukocyte mobilization (blood cell counts)", "test": "Hematology measurements after PO administration (leukocyte mobilization)", "type": "in vivo, CD-1 mice", "method": "At each endpoint, mice were euthanized with CO2 and blood collected via cardiac puncture. An aliquot was set aside at room temperature for hematology measurements with remaining blood processed for plasma for drug concentration determination. Lungs were collected and immediately frozen on dry ice and stored at -70°C until determination of drug concentration."}, "[2]": {"test": "AMD070 PK study via PO: plasma and lung concentration", "type": "in vivo, CD-1 mice", "method": "At each endpoint, mice were euthanized with CO2 and blood collected via cardiac puncture. An aliquot was set aside at room temperature for hematology measurements with remaining blood processed for plasma for drug concentration determination. Lungs were collected and immediately frozen on dry ice and stored at -70°C until determination of drug concentration. AMD070 concentrations in mouse plasma were determined using protein precipitation extraction followed by UPLC-MS/MS analysis. Briefly, 100 μL aliquots of plasma were transferred to individual wells of an Isolute PPT+ (Biotage) array plate containing 300 μL of 0.1% formic acid (FA) in acetonitrile (ACN). […] The sample residue was then reconstituted into 200 μL of 0.1/5/95 FA/ACN/H2O (v/v/v) and analyzed using reverse phase chromatography (gradient elution) combined with multiple reaction monitoring acquisition (MRM). The mobile phases consisted of 0.1% FA in H2O and 0.1% FA in ACN. AMD070 was extracted from lung and liver tissue by homogenization under basic conditions followed by liquid-liquid extraction in tert-butyl methyl ether (TBME) and ethyl acetate respectively. In summary, 50 mg of lung or liver tissue pieces were cut, weighed, and transferred to homogenization tubes. 25 μL of deionized water for lung and 10 μL for liver were added to each tube, followed by the addition of zirconium (Zr) homogenization beads. The samples were homogenized for approximately 20 seconds in the BeadBeater, followed by 1 minute of centrifugation at room temperature at 13,520 rcf. 200 μL of 1 N NaOH was then transferred to each tube, followed by a second homogenization/centrifugation cycle as described above. […] The dried residue was reconstituted into 0.1/5/95 TFA/ACN/H2O and analyzed using reverse phase chromatography (gradient elution) combined with MRM acquisition in positive electrospray mode (ES+). The mobile phases consisted of 0.1% TFA in H2O and 0.1% TFA in ACN."}, "[3]": {"system": "CCl4-induced hepatic fibrosis", "test": "CCl4-induced murine model of hepatic fibrosis", "type": "in vivo, C57BL/6 mice", "from_the_text": "Hepatic fibrosis was induced in eleven week old female C57BL/6 mice from JAX Labs. Animals were randomly divided into three groups: oil plus vehicle (PBS) control, CCl4 plus vehicle (PBS) control and CCl4 plus AMD070. As some animals were euthanized prior to study completion because they had reached a humane endpoint, final group numbers were n = 9 for oil plus vehicle (PBS) control, n = 6 for CCl4 plus vehicle (PBS) control and n = 7 for CCl4 plus AMD070 groups. […] Starting one day prior to the initial CCl4 treatment (day -1), dosing with either AMD070 reconstituted in PBS (50 mg/kg) or PBS vehicle control (10 mL/kg) was administered IP and continued 5 days/week for 4 weeks. Specifically, AMD070 or PBS treatments were not performed on the 2 days/week on which animals were given CCl4 (or olive oil vehicle control). One day after the last AMD070 or PBS treatment, animals were euthanized with CO2.\nLivers were perfused with PBS then 10% formalin and the left top lobe preserved in 10% neutral buffer formalin (NBF) for a week. The fixed liver was embedded in paraffin, six cross sections at 500 μm apart generated and stained with Picrosirius Red. For quantitation of percent hepatic fibrosis, fibrotic area (Picrosirius Red) was divided by total liver area and multiplying by 100. Three histology slides/animal were analyzed. The three slides corresponded to one slide from each of the alternative six cross sections. These analyses were performed with Olympus cellSens and the analyst was blinded to sample identity.\nThe top right lobe of livers were homogenized in 1 mL of Trizol (Invitrogen) and flash frozen in dry ice and stored in -80°C for RNA isolation to perform RT-qPCR. Total RNA was isolated and cDNA prepared using the High Capacity cDNA Reverse Transcription kit according to the manufacturer’s instructions (Life Technologies). RT-qPCR was carried out as previously described using the standard curve method. The following primer/probe sets were used to detect: Acta2 (IDT Assay–N007392.1), Probe- 5’-/56-FAM/TTACAGAGC/ZEN/CCAGAGCCATTGTCG/3IABkFQ/3’, Primer 1–5’-[…]-3’, Primer 2: 5’-[…]-3’; Col1a1 (Life Technologies custom primer/probe mix), primer 1–5’-[…], primer 2–5’- […], probe- 5’-FAM-ACACCGGAACTTGGG-MGBNFQ; Tbp (Life Technologies custom primer/probe mix), Primer 1–5’-[…], Primer 2–5’-TGGCTCCTGTGCACACCAT, Probe- 5’-FAM-CGTTGATTTTCAGTTCTGG-MGBNFQ; Gapdh (IDT Assay–Mm.PT.39a.1), probe- 5’-/56-FAM/TGCAAATGG/ZEN/CAGCCCTGGTG/3IABkFQ/3’, primer 1–5’-AATGGTGAAGGTCGGTGTG-3’, primer 2–5’-[…]-3’.\nFive μL of serum was used with the AST Activity Assay Kit (Sigma MAK055) as per manufacturer’s instructions to determine serum AST levels."}, "[4]": {"system": "mobilization of bone marrow hematopoietic progenitors", "design": "method as in PMID 17452489", "conditions": "human subjects; cited from earlier work"}, "[5]": {"conditions": "RT-qPCR relative to Gapdh and Tbp, CCl4 plus AMD070 vs CCl4 plus PBS"}},
  "data": [
    {"smiles": "NCCCCN(Cc1nc2ccccc2[nH]1)[C@H]1CCCc2cccnc21", "note": "[AMD070]", "values": [
      {"measurement": "Tmax of WBC increase", "setting": "[1]; PO 200 μg/mouse", "result": 3, "unit": "h"},
      {"measurement": "WBC counts", "setting": "[1]; PO 200 μg/mouse", "result": "significant, transient increase"},
      {"measurement": "WBC counts", "setting": "[1]; PO 400 μg/mouse", "result": "increased and remained elevated for the full 24 hours"},
      {"measurement": "eosinophils (WBC differential)", "setting": "[1]; PO 200 or 400 μg/mouse", "result": "no increases"},
      {"measurement": "lymphocytes (WBC differential)", "setting": "[1]; PO 200 or 400 μg/mouse", "result": "increased"},
      {"measurement": "monocytes (WBC differential)", "setting": "[1]; PO 200 or 400 μg/mouse", "result": "no increases"},
      {"measurement": "neutrophils (WBC differential)", "setting": "[1]; PO 200 or 400 μg/mouse", "result": "no increases"},
      {"measurement": "platelet counts", "setting": "[1]; PO 200 or 400 μg/mouse", "result": "did not change"},
      {"measurement": "red blood cell (RBC) counts", "setting": "[1]; PO 200 or 400 μg/mouse", "result": "did not change"},
      {"measurement": "drug levels in the lungs", "setting": "[2]; PO 200 μg/animal", "result": "detectable but not quantifiable"},
      {"measurement": "lung Cmax", "setting": "[2]; PO 400 μg/animal", "result": 267, "unit": "ng/g"},
      {"measurement": "time of lung Cmax after PO", "setting": "[2]; PO 400 μg/animal", "result": 6, "unit": "h"},
      {"measurement": "plasma concentrations of drug", "setting": "[2]; PO 200 or 400 μg/animal, data not shown", "result": "very low"},
      {"measurement": "time lung concentration above IC50 and EC90", "setting": "[2]; of the 24 hours after dosing, PO 400 μg/animal, WinNonlin analysis", "result": "at least 21 hours"},
      {"measurement": "percent liver fibrosis (Picrosirius red staining)", "setting": "[3]; CCl4 plus AMD070 50 mg/kg IP 5 days/week for 4 weeks, group average, CCl4 plus PBS 3.2%", "result": 3.6, "unit": "%"},
      {"measurement": "mortality rate between groups", "setting": "[3]; CCl4 plus AMD070 50 mg/kg IP vs control groups", "result": "no difference"},
      {"measurement": "liver Acta2 (αSma) relative transcription level", "setting": "[3]; [5]", "result": "not different"},
      {"measurement": "liver Col1a1 relative transcription level", "setting": "[3]; [5]", "result": "not different"},
      {"measurement": "serum AST levels", "setting": "[3]; after 4 weeks, CCl4 plus AMD070 vs CCl4 plus vehicle control", "result": "no difference"},
      {"measurement": "time of peak mobilization of bone marrow hematopoietic progenitors post dosing", "setting": "[4]", "result": "two to three"}
    ]}
  ]
}
